# Assay: Tested for competitive inhibitory activity against beta-Glucosidase
row,SMILES,Ki [mM]
1,CO[C@@H]1O[C@@H](CO)[C@@H](Oc2cccnc2S[C@H]2[C@H](O)[C@H](O)[C@H](OC)O[C@H]2CO)[C@H](O)[C@@H]1O,5.5
2,"COC1OC(CO)C(Sc2ccccn2)C(O)C1O (stereo unspecified) [6-Hydroxymethyl-2-methoxy-5-(pyridin-2-ylsulfanyl)-tetrahydro-pyran-3,4-diol]",8
3,"COC1OC(CO)C(Sc2ncccc2O)C(O)C1O (stereo unspecified) [6-Hydroxymethyl-5-(3-hydroxy-pyridin-2-ylsulfanyl)-2-methoxy-tetrahydro-pyran-3,4-diol]",0.8

# Results, then the compound that gave them:
row,Ki [mM],SMILES
1,4,"COC1OC(CO)C(Sc2nc(CO)ccc2O)C(O)C1O (stereo unspecified) [5-(3-Hydroxy-6-hydroxymethyl-pyridin-2-ylsulfanyl)-6-hydroxymethyl-2-methoxy-tetrahydro-pyran-3,4-diol]"
2,20,"COC1OC(CO)C(Sc2nc(CN(C)C)ccc2O)C(O)C1O (stereo unspecified) [5-(6-Dimethylaminomethyl-3-hydroxy-pyridin-2-ylsulfanyl)-6-hydroxymethyl-2-methoxy-tetrahydro-pyran-3,4-diol]"
3,4.5,"COC1OC(CO)C(Sc2nc(C)ccc2O)C(O)C1O (stereo unspecified) [6-Hydroxymethyl-5-(3-hydroxy-6-methyl-pyridin-2-ylsulfanyl)-2-methoxy-tetrahydro-pyran-3,4-diol]"

# Reference: BindingDB's records for doi:10.1016/0960-894X(95)00111-6 (1995)
